{"source": "patent US8247211B2", "about": "“Glycopeptide antibiotics” (American Cyanamid Company, priority 2001, dated 2012)", "assay_in_all_cases": "In vitro antibacterial evaluation: minimum inhibitory concentration (MIC), broth dilution method", "type_in_all_cases": "cell-based", "settings_in_all_cases": "18 hours at 35° C.", "key": {"Staphylococcus sp.": {"tested_on": "Staphylococcus sp.", "summary_of_the_method": "(§1)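 Broth dilution per NCCLS M7-A2 in Muller-Hinton II […], inoculum 5×10^5 CFU/mL, antibiotic tested over 64-0.06 μg/mL. MIC is taken as the lowest concentration that inhibits growth. Panel includes recent clinical isolates resistant to methicillin, penicillin and/or vancomycin.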"}, "Escherichia coli": {"tested_on": "Escherichia coli", "summary_of_the_method": "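NCCLS M7-A2 broth dilution; Muller-Hinton II […]; 5×10^5 CFU/mL; 64-0.06 μg/mL. MIC = lowest concentration with no growth.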"}, "Streptococcus sp.": {"tested_on": "Streptococcus sp.", "summary_of_the_method": "as §1"}, "Enterococcus sp.": {"tested_on": "Enterococcus sp.", "summary_of_the_method": "as §1"}}, "data": [{"substance": "α-O-[(Dodecylanaino)carbonyl]-cyclo[glycyl-β-methylphenylalanyl-O-(4-O-hexopyranosylhexopyranosyl)tyrosyl-3-(2-iminoimidazolidin-4-yl)seryl-3-(3-hexopyranosyl-2-iminoimidazoliclin-4-yl)serylseryl] [Example 254]", "values": [{"measurement": "MIC Coagulase Negative Staphylococcus (GC 4547)", "setting": "Staphylococcus sp.; Coagulase Negative Staphylococcus (GC 4547)", "result": 4, "unit": "µg/mL"}, {"measurement": "MIC Coagulase Negative Staphylococcus (GC 4548)", "setting": "Staphylococcus sp.; Coagulase Negative Staphylococcus (GC 4548)", "result": 4, "unit": "µg/mL"}, {"measurement": "MIC Coagulase Negative Staphylococcus (GC 4549)", "setting": "Staphylococcus sp.; Coagulase Negative Staphylococcus (GC 4549)", "result": 2, "unit": "µg/mL"}, {"measurement": "MIC Coagulase Negative Staphylococcus (GC 4551)", "setting": "Staphylococcus sp.; Coagulase Negative Staphylococcus (GC 4551)", "result": 4, "unit": "µg/mL"}, {"measurement": "MIC Coagulase Negative Staphylococcus (ID-3941)", "setting": "Staphylococcus sp.; Coagulase Negative Staphylococcus (ID-3941)", "result": 2, "unit": "µg/mL"}, {"measurement": "MIC Staphylococcus aureus (ATCC 29213)", "setting": "Staphylococcus sp.; Staphylococcus aureus (ATCC 29213)", "result": 4, "unit": "µg/mL"}, {"measurement": "MIC Staphylococcus aureus (GC 1131)", "setting": "Staphylococcus sp.; Staphylococcus aureus (GC 1131)", "result": 4, "unit": "µg/mL"}, {"measurement": "MIC Staphylococcus aureus (GC 4541)", "setting": "Staphylococcus sp.; Staphylococcus aureus (GC 4541)", "result": 4, "unit": "µg/mL"}, {"measurement": "MIC Staphylococcus aureus (GC 4542)", "setting": "Staphylococcus sp.; Staphylococcus aureus (GC 4542)", "result": 4, "unit": "µg/mL"}, {"measurement": "MIC Staphylococcus aureus (GC 4544)", "setting": "Staphylococcus sp.; Staphylococcus aureus (GC 4544)", "result": 4, "unit": "µg/mL"}, {"measurement": "MIC Staphylococcus aureus (GC 4545)", "setting": "Staphylococcus sp.; Staphylococcus aureus (GC 4545)", "result": 8, "unit": "µg/mL"}, {"measurement": "MIC Staphylococcus aureus-SMITH (GC 4543)", "setting": "Staphylococcus sp.; Staphylococcus aureus-SMITH (GC 4543)", "result": 4, "unit": "µg/mL"}, {"measurement": "MIC Staphylococcus haemolyticus (GC 4546)", "setting": "Staphylococcus sp.; Staphylococcus haemolyticus (GC 4546)", "result": 4, "unit": "µg/mL"}, {"measurement": "MIC Staphylococcus aureus (ATCC 29213)", "setting": "Staphylococcus sp.; broth dilution, strain ATCC 29213", "result": 4, "unit": "µg/mL"}, {"measurement": "MIC Staphylococcus aureus (GC 1131)", "setting": "Staphylococcus sp.; broth dilution, strain GC 1131", "result": 4, "unit": "µg/mL"}, {"measurement": "MIC Staphylococcus aureus (GC 4541)", "setting": "Staphylococcus sp.; broth dilution, strain GC 4541", "result": 4, "unit": "µg/mL"}, {"measurement": "MIC Staphylococcus aureus (GC 4542)", "setting": "Staphylococcus sp.; broth dilution, strain GC 4542", "result": 4, "unit": "µg/mL"}, {"measurement": "MIC Staphylococcus aureus-SMITH (GC 4543)", "setting": "Staphylococcus sp.; broth dilution, strain GC 4543", "result": 4, "unit": "µg/mL"}, {"measurement": "MIC Staphylococcus aureus (GC 4544)", "setting": "Staphylococcus sp.; broth dilution, strain GC 4544", "result": 4, "unit": "µg/mL"}, {"measurement": "MIC Staphylococcus aureus (GC 4545)", "setting": "Staphylococcus sp.; broth dilution, strain GC 4545", "result": 8, "unit": "µg/mL"}, {"measurement": "MIC Staphylococcus haemolyticus (GC 4546)", "setting": "Staphylococcus sp.; broth dilution, strain GC 4546", "result": 4, "unit": "µg/mL"}, {"measurement": "MIC Coagulase Negative Staphylococcus (GC 4547)", "setting": "Staphylococcus sp.; broth dilution, strain GC 4547", "result": 4, "unit": "µg/mL"}, {"measurement": "MIC Coagulase Negative Staphylococcus (GC 4548)", "setting": "Staphylococcus sp.; broth dilution, strain GC 4548", "result": 4, "unit": "µg/mL"}, {"measurement": "MIC Coagulase Negative Staphylococcus (GC 4549)", "setting": "Staphylococcus sp.; broth dilution, strain GC 4549", "result": 2, "unit": "µg/mL"}, {"measurement": "MIC Coagulase Negative Staphylococcus (GC 4551)", "setting": "Staphylococcus sp.; broth dilution, strain GC 4551", "result": 4, "unit": "µg/mL"}, {"measurement": "MIC Coagulase Negative Staphylococcus (ID-3941)", "setting": "Staphylococcus sp.; broth dilution, strain ID-3941", "result": 2, "unit": "µg/mL"}, {"measurement": "MIC Escherichia coli (ATCC 25922)", "setting": "Escherichia coli; Escherichia coli (ATCC 25922)", "result": 64, "unit": "µg/mL"}, {"measurement": "MIC Escherichia coli (GC 4559)", "setting": "Escherichia coli; Escherichia coli (GC 4559)", "result": 8, "unit": "µg/mL"}, {"measurement": "MIC Escherichia coli (GC 4560)", "setting": "Escherichia coli; Escherichia coli (GC 4560)", "result": 4, "unit": "µg/mL"}, {"measurement": "MIC Streptococcus agalactiae (GC 4564)", "setting": "Streptococcus sp.; Streptococcus agalactiae (GC 4564)", "result": 4, "unit": "µg/mL"}, {"measurement": "MIC Streptococcus pneumoniae (GC 4565)", "setting": "Streptococcus sp.; Streptococcus pneumoniae (GC 4565)", "result": 16, "unit": "µg/mL"}, {"measurement": "MIC Streptococcus pyogenes (ID-3187)", "setting": "Streptococcus sp.; Streptococcus pyogenes (ID-3187)", "result": 8, "unit": "µg/mL"}, {"measurement": "MIC Streptococcus agalactiae (GC 4564)", "setting": "Streptococcus sp.; broth dilution, strain GC 4564", "result": 4, "unit": "µg/mL"}, {"measurement": "MIC Streptococcus pneumoniae (GC 4565)", "setting": "Streptococcus sp.; broth dilution, strain GC 4565", "result": 16, "unit": "µg/mL"}, {"measurement": "MIC Streptococcus pyogenes (ID-3187)", "setting": "Streptococcus sp.; broth dilution, strain ID-3187", "result": 8, "unit": "µg/mL"}, {"measurement": "MIC Enterococcus avium (GC 4558)", "setting": "Enterococcus sp.; Enterococcus avium (GC 4558)", "result": 4, "unit": "µg/mL"}, {"measurement": "MIC Enterococcus faecalis (ATCC 29212)", "setting": "Enterococcus sp.; Enterococcus faecalis (ATCC 29212)", "result": 8, "unit": "µg/mL"}, {"measurement": "MIC Enterococcus faecalis (GC 2242)", "setting": "Enterococcus sp.; Enterococcus faecalis (GC 2242)", "result": 8, "unit": "µg/mL"}, {"measurement": "MIC Enterococcus faecalis (GC 4552)", "setting": "Enterococcus sp.; Enterococcus faecalis (GC 4552)", "result": 8, "unit": "µg/mL"}, {"measurement": "MIC Enterococcus faecalis (GC 4553)", "setting": "Enterococcus sp.; Enterococcus faecalis (GC 4553)", "result": 4, "unit": "µg/mL"}, {"measurement": "MIC Enterococcus faecalis (GC 4554)", "setting": "Enterococcus sp.; Enterococcus faecalis (GC 4554)", "result": 8, "unit": "µg/mL"}, {"measurement": "MIC Enterococcus faecium (GC 2243)", "setting": "Enterococcus sp.; Enterococcus faecium (GC 2243)", "result": 4, "unit": "µg/mL"}, {"measurement": "MIC Enterococcus faecium (GC 4556)", "setting": "Enterococcus sp.; Enterococcus faecium (GC 4556)", "result": 8, "unit": "µg/mL"}, {"measurement": "MIC Enterococcus faecium (GC 4557)", "setting": "Enterococcus sp.; Enterococcus faecium (GC 4557)", "result": 2, "unit": "µg/mL"}, {"measurement": "MIC Enterococcus faecalis (ATCC 29212)", "setting": "Enterococcus sp.; broth dilution, strain ATCC 29212", "result": 8, "unit": "µg/mL"}, {"measurement": "MIC Enterococcus faecalis (GC 2242)", "setting": "Enterococcus sp.; broth dilution, strain GC 2242", "result": 8, "unit": "µg/mL"}, {"measurement": "MIC Enterococcus faecium (GC 2243)", "setting": "Enterococcus sp.; broth dilution, strain GC 2243", "result": 4, "unit": "µg/mL"}, {"measurement": "MIC Enterococcus faecalis (GC 4552)", "setting": "Enterococcus sp.; broth dilution, strain GC 4552", "result": 8, "unit": "µg/mL"}, {"measurement": "MIC Enterococcus faecalis (GC 4553)", "setting": "Enterococcus sp.; broth dilution, strain GC 4553", "result": 4, "unit": "µg/mL"}, {"measurement": "MIC Enterococcus faecalis (GC 4554)", "setting": "Enterococcus sp.; broth dilution, strain GC 4554", "result": 8, "unit": "µg/mL"}, {"measurement": "MIC Enterococcus faecium (GC 4556)", "setting": "Enterococcus sp.; broth dilution, strain GC 4556", "result": 8, "unit": "µg/mL"}, {"measurement": "MIC Enterococcus faecium (GC 4557)", "setting": "Enterococcus sp.; broth dilution, strain GC 4557", "result": 2, "unit": "µg/mL"}, {"measurement": "MIC Enterococcus avium (GC 4558)", "setting": "Enterococcus sp.; broth dilution, strain GC 4558", "result": 4, "unit": "µg/mL"}]}]}
